Legend:
[1] = system: LN-229; assay: Cytotoxicity, MTT assay; type: cell-based, human; conditions: LN-229, 1 mM, 72 hr, N=3, P<0.001
Protocol: (§1) Cytotoxicity was evaluated by the MTT assay as described previously ([21], [22]). Cells seeded in 96-well plates were exposed to TMZ at various concentrations for 72 hr (N=3 in each concentration). Curves were fitted using GraphPad PRISM (version 5.0) as a function of a nonlinear one-phase decay (maximum iterations: 1,000, Cl: 95%).

[2] = system: U-118; assay: Cytotoxicity, MTT assay; type: cell-based, human; conditions: U-118, 1 mM, 72 hr, N=3, P<0.001
Protocol: as §1

[3] = system: LN-229 xenograft; assay: Subcutaneous xenograft tumor growth; type: in vivo, athymic mice; conditions: LN-229 s.c. xenograft, day 20; TMZ 5 mg/kg Day1-5, p28 10 mg/kg 3 times weekly, i.p.; N=5/group; P<0.001
Protocol: (§2) All animal work was performed under a protocol approved by the University of Illinois at Chicago. Athymic mice at 4-5 weeks old were purchased from The Jackson Laboratory. For orthotopic xenografts, GBM cell lines (LN-229 and U-118) were injected into the cerebral cortex. Following anesthesia, cancer cell suspensions at 5x10^5 cells/3μl were stereotactically injected (2 mm lateral to the sagittal suture, 1 mm anterior to the coronal suture, 3 mm depth) using a Koft model 963 stereotactic apparatus with a 31-gauge Hamilton syringe. After injection, the injection site was covered with sterile bone wax. Tumor growth was monitored by MR imaging. For tumor growth study, GBM cell lines (LN-229 and U-118) at 1.0x10^6 cell/mouse were subcutaneously (s.c.) implanted into the right flank of athymic mice ([22]). When tumors reached 3 mm in diameter, animals were randomized into several groups; PBS (control), TMZ 5 mg/kg (25.7 μmol/kg) 5 injections on Day1-5, and p28 10 mg/kg (3.4 μmol/kg) 3 times weekly, i.p. Body weight was determined 3 times weekly. The tumor volume in each animal was assessed by calipers and calculated 3 times weekly.
(§3) Data processing and statistical analysis were performed using GraphPad Prism. ANOVA test was performed for tumor growth analysis, and P<0.05 was considered statistically significant.

[4] = system: U-118 xenograft; assay: Subcutaneous xenograft tumor growth; type: in vivo, athymic mice; conditions: U-118 s.c. xenograft, day 20; TMZ 5 mg/kg, p28 10 mg/kg i.p.; N=7/group
Protocol: as §2, §3

[5] = Body weight in xenograft study; type: in vivo, athymic mice; conditions: U-118 xenograft mice, over four weeks of i.p. treatment
Protocol: as §2

Cn1nnc2c(C(N)=O)ncn2c1=O [TMZ, temozolomide]
reduction (antiproliferative effect, MTT) [1]: 53.2%
reduction (antiproliferative effect, MTT) [2]: 36.6%
reduction in tumor growth compared to the PBS control group [3]: 42.4%
reduction of tumor growth [4]: 24.5%
body weight [5]: 29.0 ± 0.8 g
